According to patent publication US20240158446A1, “CYCLIC COMPOUND HAVING SELECTIVE INHIBITORY ACTION ON KRAS OVER HRAS AND NRAS” (CHUGAI SEIYAKU KABUSHIKI KAISHA, priority 2021, published 2024):
Read-outs that look alike come from different tables or passages of the source. *1 amine or outer side, *2 acyl side, *3 side chain or, on linkers, in order; H or OH if unused. Where a SMILES comes first, the peptide text is derived from it. Bridges are numbered along the chain shown (N, C = ends). [ ]: non-standard residue; d: D form. The star is where a group is joined. hPhe(3-Cl-4-CF3) = N[C@@H](CCc1ccc(C(F)(F)F)c(Cl)c1)C(=O)O; X5 = C=CCN([C@@H](Cc1ccc(C(F)(F)F)cc1)C(=O)[*:2])[*:1]; NPrPhe(4-CF3) = CCCN[C@@H](Cc1ccc(C(F)(F)F)cc1)C(=O)O; NMeGly(cPent) = CN[C@H](C(=O)O)C1CCCC1; NMeD = CN[C@@H](CC(=O)O)C(=O)O; NMeL = CN[C@@H](CC(C)C)C(=O)O; Morpholide = C1CN(*)CCO1; NMeA = CN[C@@H](C)C(=O)O; Ac5c = NC1(C(=O)O)CCCC1; Aze = O=C(O)[C@@H]1CCN1; Sar = CNCC(=O)O

Legend:
[1] = biological target: GDP-bound NRAS wild-type protein (Homo sapiens, UniProt P01111); assay: Binding to NRAS by surface plasmon resonance (SPR), Single Cycle Kinetics; settings: for NRAS/KRAS (ratio of KD value for NRAS to KD value for KRAS) / NRAS/KRAS (ratio of KD value with respect to NRAS to KD value with respect to KRAS): SPR, GDP-bound NRAS wild-type protein vs GDP-bound KRAS wild-type protein; for NRAS/KRAS (ratio of KD value with respect to GDP-bound NRAS wild-type protein to KD value with respect to KRAS): SPR KD ratio NRAS/KRAS, class symbols
Sequence of GDP-bound NRAS wild-type protein (P01111 whole entry): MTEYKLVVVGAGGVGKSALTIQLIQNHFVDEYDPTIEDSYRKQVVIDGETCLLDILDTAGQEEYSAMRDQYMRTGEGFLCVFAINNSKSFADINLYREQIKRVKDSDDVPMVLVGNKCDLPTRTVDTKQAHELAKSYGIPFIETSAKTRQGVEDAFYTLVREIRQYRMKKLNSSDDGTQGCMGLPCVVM

[2] = biological target: GDP-bound KRAS wild-type protein (Homo sapiens, UniProt P01116); assay: Binding to KRAS by surface plasmon resonance (SPR), Single Cycle Kinetics; settings: GDP-bound KRAS wild-type protein, read-out: KRAS KD
Sequence of GDP-bound KRAS wild-type protein (P01116 whole entry): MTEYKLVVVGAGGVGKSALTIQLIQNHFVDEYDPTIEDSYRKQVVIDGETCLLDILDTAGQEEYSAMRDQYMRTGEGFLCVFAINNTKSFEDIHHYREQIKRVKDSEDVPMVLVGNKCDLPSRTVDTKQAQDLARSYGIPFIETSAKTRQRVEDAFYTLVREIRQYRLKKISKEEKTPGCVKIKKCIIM

[3] = biological target: GDP-bound HRAS wild-type protein (Homo sapiens, UniProt P01112); assay: Binding to HRAS by surface plasmon resonance (SPR), Single Cycle Kinetics; settings: for HRAS/KRAS (ratio of KD value for HRAS to KD value for KRAS) / HRAS/KRAS (ratio of KD value with respect to HRAS to KD value with respect to KRAS): SPR, GDP-bound HRAS wild-type protein vs GDP-bound KRAS wild-type protein; for HRAS/KRAS (ratio of KD value with respect to GDP-bound HRAS wild-type protein to KD value with respect to KRAS): SPR KD ratio HRAS/KRAS, class symbols
Sequence of GDP-bound HRAS wild-type protein (P01112 whole entry): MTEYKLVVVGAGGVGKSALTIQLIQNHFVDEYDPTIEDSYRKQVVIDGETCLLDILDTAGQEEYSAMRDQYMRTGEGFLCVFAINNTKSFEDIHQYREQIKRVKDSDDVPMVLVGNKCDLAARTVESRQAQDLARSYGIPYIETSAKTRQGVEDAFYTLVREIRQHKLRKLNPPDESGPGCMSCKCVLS

[4] = SPR Single Cycle Kinetics, 1:1 binding model

| Structure (SMILES) | Kd ([2]; SPR, Single Cycle Kinetics) [nM] | Kd [2, 4] [nM] | NRAS/KRAS (ratio of KD value for NRAS to KD value for KRAS) [1] | HRAS/KRAS (ratio of KD value for HRAS to KD value for KRAS) [3] | other results |
| --- | --- | --- | --- | --- | --- |
| CCCCO[C@H]1CCN2C(=O)[C@H](CCc3cc(F)c(C(F)(F)F)c(F)c3)NC(=O)CN(C)C(=O)[C@H](Cc3ccc(C(F)(F)F)cc3)N3CCCC[C@@H](C3=O)N(C)C(=O)CN(C)C(=O)[C@H]([C@@H](C)CC)NC(=O)[C@H](CC(C)C)N(C)C(=O)C[C@@H](C(=O)N3CCOCC3)N(C)C(=O)[C@H](C3CCCC3)N(C)C(=O)C3(CCC3)NC(=O)[C@H]12 [PP1071] | 0.1 |  | B (a compound having 3 or more and less than 10 is denoted as B) | B (a compound having 3 or more and less than 10 is denoted as B) |  |
| CCO[C@@H]1C[C@H]2C(=O)NC3(CCC3)C(=O)N(C)[C@@H](C3CCCC3)C(=O)N(C)[C@H](C(=O)N(C)C)CC(=O)N(C)[C@@H](CC3CCCC3)C(=O)N[C@@H]([C@@H](C)CC)C(=O)N(C)CC(=O)N(C)[C@H]3C/C=C\CCN(C3=O)[C@@H](Cc3ccc(C)cc3)C(=O)N(C)CC(=O)N[C@@H](CCc3ccc(C4CC4)c(F)c3)C(=O)N2C1 [PP2683] |  | 0.87 |  |  | NRAS/KRAS (ratio of KD value with respect to GDP-bound NRAS wild-type protein to KD value with respect to KRAS) [1]: A (a compound having 10 or more and less than 20 is denoted as A); HRAS/KRAS (ratio of KD value with respect to GDP-bound HRAS wild-type protein to KD value with respect to KRAS) [3]: A (a compound having 10 or more and less than 20 is denoted as A) |
| CC[C@H](C)[C@@H]1NC(=O)[C@H](CC(C)C)N(C)C(=O)C[C@@H](C(=O)N2CCOCC2)N(C)C(=O)[C@H](C2CCCC2)N(C)C(=O)C(C)(C)NC(=O)[C@@H]2CCCN2C(=O)[C@H](CCc2cc(F)c(C(F)(F)F)c(F)c2)NC(=O)CN(C)C(=O)[C@H](Cc2ccc(C(F)(F)F)cc2)N2CCCCC[C@@H](C2=O)N(C)C(=O)CN(C)C1=O [PP0503] |  | 4.4 |  |  | NRAS/KRAS (ratio of KD value with respect to NRAS to KD value with respect to KRAS) [1]: A (a compound having 10 or more and less than 20 is denoted as A); HRAS/KRAS (ratio of KD value with respect to HRAS to KD value with respect to KRAS) [3]: B (a compound having 3 or more and less than 10 is denoted as B) |
| CCO[C@@H]1C[C@H]2C(=O)NC3(CC(C)(C)C3)C(=O)N(C)[C@@H](C(CC)CC)C(=O)N(C)[C@H](C(=O)N(C)C)CC(=O)N(C)[C@H]3CCCCC/C=C/c4ccc(cc4)C[C@@H](C(=O)N(C)CC(=O)N[C@@H](CCc4cc(F)c(C(F)(F)F)c(F)c4)C(=O)N2C1)N1CC/C=C\C[C@@H](C1=O)N(C)C(=O)CN(C)C(=O)[C@H]([C@@H](C)CC)NC3=O [PP3048] | 0.11 |  | A (a compound having 10 or more and less than 20 is denoted as A) | A (a compound having 10 or more and less than 20 is denoted as A) |  |
| CCO[C@@H]1C[C@H]2C(=O)NC3(CCC3)C(=O)N(C)[C@@H](C(CC)CC)C(=O)N(C)C(C(C)C)CC(=O)N(C)[C@@H](CC3CC3)C(=O)N[C@@H]([C@@H](C)CC)C(=O)N(C)CC(=O)N(C)[C@H]3C/C=C\CCN(C3=O)[C@@H](Cc3ccc(C(F)(F)F)cc3)C(=O)N(C)CC(=O)N[C@@H](CCc3cc(F)c(C(F)(F)F)c(F)c3)C(=O)N2C1 (stereo partly drawn) [PP1595] |  |  |  |  | NRAS/KRAS (ratio of KD value for NRAS to KD value for KRAS) ([1]; KD ratio class): A (a compound having 10 or more and less than 20 is denoted as A); Kd ([2]; SPR, Single Cycle Kinetics, 1:1 binding model): 2.3 nM; HRAS/KRAS (ratio of KD value for HRAS to KD value for KRAS) ([3]; KD ratio class): A (a compound having 10 or more and less than 20 is denoted as A) |
| C=CCN1C(=O)[C@@H]2CCN2C(=O)[C@H](C)N(C)C(=O)[C@H]([C@@H](C)CC)NC(=O)[C@H](CC(C)C)N(C)C(=O)C[C@@H](C(=O)N2CCOCC2)N(C)C(=O)[C@H](C2CCCC2)N(C)C(=O)C2(CCCC2)NC(=O)[C@@H]2CCCN2C(=O)[C@H](CCc2ccc(C(F)(F)F)c(Cl)c2)NC(=O)CN(C)C(=O)[C@@H]1Cc1ccc(C(F)(F)F)cc1 [PP0114] ([NMeL]I[NMeA][Aze][X5][Sar][hPhe(3-Cl-4-CF3)]P[Ac5c][NMeGly(cPent)][NMeD]-Morpholide; lactam N-11) |  | 0.16 | C (A compound having a KD ratio of 0.1 or more and less than 3 is denoted as C) | C (A compound having a KD ratio of 0.1 or more and less than 3 is denoted as C) |  |
| CCO[C@@H]1C[C@H]2C(=O)NC3(CCC3)C(=O)N(C)[C@@H](C3CCCC3)C(=O)N(C)[C@H](C(=O)N3CCOCC3)CC(=O)N(C)[C@@H](CC(C)C)C(=O)N[C@@H](C3CC(F)(F)C3)C(=O)N(C)CC(=O)N(C)[C@H]3CCCCN(C3=O)[C@@H](Cc3ccc(C(F)(F)F)cc3)C(=O)N(C)CC(=O)N[C@@H](CCc3cc(F)c(C(F)(F)F)c(F)c3)C(=O)N2C1 [PP0807] |  | 0.059 |  |  | NRAS/KRAS (ratio of KD value with respect to NRAS to KD value with respect to KRAS) [1]: B (a compound having 3 or more and less than 10 is denoted as B); HRAS/KRAS (ratio of KD value with respect to HRAS to KD value with respect to KRAS) [3]: B (a compound having 3 or more and less than 10 is denoted as B) |

Now from value to compound, other results behind:

| Kd ([2]; SPR, Single Cycle Kinetics) [nM] | Kd [2, 4] [nM] | Structure (SMILES) | NRAS/KRAS (ratio of KD value for NRAS to KD value for KRAS) [1] | HRAS/KRAS (ratio of KD value for HRAS to KD value for KRAS) [3] | other results |
| --- | --- | --- | --- | --- | --- |
|  | 0.38 | CCCN1C(=O)[C@@H]2CCN2C(=O)[C@H](C)N(C)C(=O)[C@H]([C@@H](C)CC)NC(=O)[C@H](CC(C)C)N(C)C(=O)C[C@@H](C(=O)N(C)C)NC(=O)[C@H](C2CCCC2)N(C)C(=O)C2(CCCC2)NC(=O)[C@@H]2CCCN2C(=O)[C@H](CCc2ccc(C(F)(F)F)c(Cl)c2)NC(=O)CN(C)C(=O)[C@@H]1Cc1ccc(C(F)(F)F)cc1 [PP0379] ([NMeL]I[NMeA][Aze][NPrPhe(4-CF3)][Sar][hPhe(3-Cl-4-CF3)]P[Ac5c][NMeGly(cPent)]D-NMe2; lactam N-11) | C (A compound having a KD ratio of 0.1 or more and less than 3 is denoted as C) | B (a compound having 3 or more and less than 10 is denoted as B) |  |
| 0.082 |  | CCC[C@H]1C(=O)N[C@@H]([C@@H](C)CC)C(=O)N(C)CC(=O)N(C)[C@H]2C/C=C\CCN(C2=O)[C@@H](Cc2ccc(C)cc2)C(=O)N(C)CC(=O)N[C@@H](CCc2ccc(C(F)(F)F)c(Cl)c2)C(=O)N2C[C@H](OCC)C[C@H]2C(=O)NC2(CC(C)(C)C2)C(=O)N(C)[C@@H](CC(C)(C)C)C(=O)N(C)[C@H](C(=O)N(C)C)CC(=O)N1C [PP2230] | A (a compound having 10 or more and less than 20 is denoted as A) | A (a compound having 10 or more and less than 20 is denoted as A) |  |
| 0.49 |  | CCC[C@@H]1C[C@H]2C(=O)NC3(CCCC3)C(=O)N(C)[C@@H](C3CCCC3)C(=O)N(C)[C@H](C(=O)N(C)CC)CC(=O)N(C)[C@@H](C)C(=O)N[C@@H]([C@@H](C)CC)C(=O)N(C)CC(=O)N(C)[C@H]3C/C=C\CCN(C3=O)[C@@H](Cc3ccc(C(F)(F)F)cc3)C(=O)N(C)CC(=O)N[C@@H](CCc3cc(F)c(C(F)(F)F)c(F)c3)C(=O)N2C1 [PP2272] | AA (a compound having 20 or more is denoted as AA) | A (a compound having 10 or more and less than 20 is denoted as A) |  |
| 0.2 |  | C=CCN1CC(=O)N(C)[C@H]2C/C=C\CCN(C2=O)[C@@H](Cc2ccc(C(F)(F)F)cc2)C(=O)N(C)CC(=O)N[C@@H](CCc2ccc(C(F)(F)F)c(OC)c2)C(=O)N2C[C@H](OCC)C[C@H]2C(=O)NC2(CC(C)(C)C2)C(=O)N(C)[C@@H](C2CCCC2)C(=O)N(C)[C@H](C(=O)N(C)C)CC(=O)N(C)[C@@H](CCC)C(=O)N[C@@H]([C@@H](C)CC)C1=O [PP2106] | A (a compound having 10 or more and less than 20 is denoted as A) | A (a compound having 10 or more and less than 20 is denoted as A) |  |
| 1.5 |  | CCC[C@H]1C(=O)N[C@@H](C2CCCCC2)C(=O)N(C)CC(=O)N(C)[C@H]2C/C=C\CCN(C2=O)[C@@H](Cc2ccc(C(F)(F)F)cc2)C(=O)N(C)CC(=O)N[C@@H](CCc2ccc(C(F)(F)F)c(Cl)c2)C(=O)N2C[C@H](OCC)C[C@H]2C(=O)NC2(CC(C)(C)C2)C(=O)N(C)[C@@H](CC(C)C)C(=O)N(C)[C@H](C(=O)N(C)C)CC(=O)N1C [PP3017] | AA (a compound having 20 or more is denoted as AA) | A (a compound having 10 or more and less than 20 is denoted as A) |  |
|  | 0.26 | CCC[C@H]1C(=O)N[C@@H]([C@@H](C)CC)C(=O)N(C)CC(=O)N(C)[C@H]2C/C=C\CCN(C2=O)[C@@H](Cc2ccc(C(F)(F)F)cc2)C(=O)N(C)CC(=O)N[C@@H](CCc2ccc(Cl)c(C(F)(F)F)c2)C(=O)N2C[C@H](OCC)C[C@H]2C(=O)NC2(CC(C)(C)C2)C(=O)N(C)[C@@H](C(CC)CC)C(=O)N(C)[C@H](C(=O)N(C)C)CC(=O)N1C [PP2785] |  |  | NRAS/KRAS (ratio of KD value with respect to GDP-bound NRAS wild-type protein to KD value with respect to KRAS) [1]: AA (a compound having 20 or more is denoted as AA); HRAS/KRAS (ratio of KD value with respect to GDP-bound HRAS wild-type protein to KD value with respect to KRAS) [3]: A (a compound having 10 or more and less than 20 is denoted as A) |
